Common to all, as to type: cell-based
The target of assay [1] is 2YF/3wt + NRG Ba/F3 cells (HER2YF/HER3wt) (Homo sapiens, UniProt P04626, Y1005F/Y1023F/Y1112F/Y1127F/Y1139F/Y1196F/Y1221F/Y1222F/Y1248F, cells depend on it). Briefly: Ba/F3 proliferation assay, 2YF/3wt + NRG. The note with it: Tables 7 and 8; read-out: Ba/F3 line IC50, HER2YF/HER3 + NRG. From the text:
Ba/F3 cells are normally dependent on IL-3 signaling for their proliferation and survival, but can be made dependent on introduced oncogenic signals. We sequentially selected transduced Ba/F3 cells for populations stably expressing HER3 and then HER2. To ensure that all of the proliferative signal could be attributed to HER2/HER3 heterodimers, rather than HER2 homodimers, the 9 C-terminal tyrosines in HER2 were mutated to phenylalanine (HER2YF). We then withdrew IL-3 and supplemented the media with NRG to select for NRG dependent HER2YF/HER3wt cells (2YF/3wt).
For the 2YF/3wt cells, the parental cells were first transduced with HER3 according to the protocol above and were then spun down at 500×g for 5 min and re-suspended in media supplemented with 10 ng/mL IL-3 and 3 μg/mL puromycin (Invitrogen). Cells were maintained in these conditions for seven days, passaging as required. After seven days the cells were spun down, washed with fresh media, and then used for a subsequent round of transduction according to the protocol above with HER2YF virus. […] The cells were maintained in these conditions for seven days, passaging as required. After seven days the cells were spun down, washed with fresh media, and then suspended in media supplemented with 10 ng/mL of NRG. Cells were maintained in these conditions for seven days to select for a NRG dependent population of 2YF/3wt Ba/F3 cells that were then maintained as described above. The same protocol was used for the 2YF-L755S/3wt, 2YF-YVMA/3wt, and 2YF-VC/3wt cell lines using the indicated constructs.
Proliferation Assays. […] The following day media was changed to fresh media that contained either DMSO or the indicated concentration of drug plus NRG (50 ng/mL final concentration) as indicated. […] For all normalized assays, proliferation was normalized to the DMSO control condition. All graphs were plotted in GraphPad Prism 6 and fit with a non-linear regression of the log(inhibitor) vs response with a variable slope where shown. All graphs are averages (+/−standard deviation) of biological triplicates each performed in technical triplicate unless otherwise noted. If only one biological replicate was performed standard deviations were derived from the technical replicates.

Assay [2] concerns the target T1, Axl+ Ba/F3 cells (Homo sapiens, UniProt P30530).
T1 sequence (P30530 1-894): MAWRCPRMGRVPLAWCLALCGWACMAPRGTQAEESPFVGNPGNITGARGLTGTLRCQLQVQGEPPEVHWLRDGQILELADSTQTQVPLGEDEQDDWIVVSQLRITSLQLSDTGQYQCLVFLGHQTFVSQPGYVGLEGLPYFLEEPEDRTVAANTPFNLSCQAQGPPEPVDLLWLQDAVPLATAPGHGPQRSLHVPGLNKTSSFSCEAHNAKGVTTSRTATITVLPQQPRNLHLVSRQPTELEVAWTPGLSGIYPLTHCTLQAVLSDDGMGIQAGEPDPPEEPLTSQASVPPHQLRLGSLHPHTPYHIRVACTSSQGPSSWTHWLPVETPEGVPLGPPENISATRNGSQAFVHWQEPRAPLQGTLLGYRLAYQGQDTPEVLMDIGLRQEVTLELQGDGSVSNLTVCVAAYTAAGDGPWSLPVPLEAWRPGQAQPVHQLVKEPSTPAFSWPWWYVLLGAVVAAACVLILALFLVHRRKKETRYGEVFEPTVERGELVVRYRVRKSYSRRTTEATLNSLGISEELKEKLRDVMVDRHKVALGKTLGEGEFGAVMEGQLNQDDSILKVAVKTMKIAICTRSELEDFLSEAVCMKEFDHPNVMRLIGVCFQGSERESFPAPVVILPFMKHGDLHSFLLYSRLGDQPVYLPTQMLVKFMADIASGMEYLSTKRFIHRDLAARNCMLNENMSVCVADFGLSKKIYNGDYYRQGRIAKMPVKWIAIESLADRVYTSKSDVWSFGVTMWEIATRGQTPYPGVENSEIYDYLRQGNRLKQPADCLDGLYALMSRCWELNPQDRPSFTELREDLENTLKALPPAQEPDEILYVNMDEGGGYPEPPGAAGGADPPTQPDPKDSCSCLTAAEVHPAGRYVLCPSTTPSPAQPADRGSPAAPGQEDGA
Briefly: Ba/F3 proliferation assay, Axl+. To be noted: Tables 7 and 8; read-out: Ba/F3 line IC50, Axl+. How it is done:
(§1) To validate the screen and test the effectiveness of counter-screening with either the same 2YF/3wt Ba/F3 cell line or the parental Ba/F3's in the presence of IL-3 to remove cytotoxic primary hits, we first tested a panel of kinase inhibitors with established mechanisms of action.
For Axl+ cells, the transduced cells were spun down at 500×g for 5 min and resuspended in media supplemented with 10 ng/mL IL-3 and 3 μg/mL puromycin (Invitrogen). Cells were maintained in these conditions for 7 days, passaging as required. After 7 days the cells were spun down, washed with fresh media, and then suspended in IL-3 free media. The cells were maintained in these conditions for 2 weeks to select for an IL-3 independent population of Axl+ driven cells.
(§2) Proliferation Assays. For adherent cell lines, cells were plated onto opaque white 96 well plates (Greiner cat #655083) and allowed to adhere overnight. The following day media was changed to fresh media that contained either DMSO or the indicated concentration of drug plus NRG (50 ng/mL final concentration) as indicated. Plates were incubated at 37° C. for 72 h and proliferation was read out using Cell Titer Glo (Promega) according to the manufacturer's protocol. For Ba/F3 cell proliferation, cells, drug dilution, and any necessary growth factors (10 ng/mL IL-3 or 6.25 ng/mL NRG) were combined in a well of a 96 well plate. Plates were incubated at 37° C. for 48 h and proliferation was read out using Cell Titer Glo according to the manufacturer's protocol. For all normalized assays, proliferation was normalized to the DMSO control condition. All graphs were plotted in GraphPad Prism 6 and fit with a non-linear regression of the log(inhibitor) vs response with a variable slope where shown. All graphs are averages (+/−standard deviation) of biological triplicates each performed in technical triplicate unless otherwise noted. If only one biological replicate was performed standard deviations were derived from the technical replicates.

Assay [3] relates to parental Ba/F3 cells + IL-3. Nature of the assay: Ba/F3 proliferation assay, Parental + IL-3. To be noted: Mus musculus, BaF3; Tables 7 and 8; read-out: Ba/F3 line IC50, Parental + IL-3. How it is done: as §1, §2
The subject of assay [4] is HER2+/2VE Ba/F3 line. Briefly: Ba/F3 proliferation assay, HER2+/2VE. The note with it: Mus musculus, BaF3; Tables 7 and 8. How it is done:
as §2

The structures appear in SMILES notation.

2YF/3wt + NRG Ba/F3 cells (HER2YF/HER3wt), sequence (P04626 whole entry Y1005F/Y1023F/Y1112F/Y1127F/Y1139F/Y1196F/Y1221F/Y1222F/Y1248F): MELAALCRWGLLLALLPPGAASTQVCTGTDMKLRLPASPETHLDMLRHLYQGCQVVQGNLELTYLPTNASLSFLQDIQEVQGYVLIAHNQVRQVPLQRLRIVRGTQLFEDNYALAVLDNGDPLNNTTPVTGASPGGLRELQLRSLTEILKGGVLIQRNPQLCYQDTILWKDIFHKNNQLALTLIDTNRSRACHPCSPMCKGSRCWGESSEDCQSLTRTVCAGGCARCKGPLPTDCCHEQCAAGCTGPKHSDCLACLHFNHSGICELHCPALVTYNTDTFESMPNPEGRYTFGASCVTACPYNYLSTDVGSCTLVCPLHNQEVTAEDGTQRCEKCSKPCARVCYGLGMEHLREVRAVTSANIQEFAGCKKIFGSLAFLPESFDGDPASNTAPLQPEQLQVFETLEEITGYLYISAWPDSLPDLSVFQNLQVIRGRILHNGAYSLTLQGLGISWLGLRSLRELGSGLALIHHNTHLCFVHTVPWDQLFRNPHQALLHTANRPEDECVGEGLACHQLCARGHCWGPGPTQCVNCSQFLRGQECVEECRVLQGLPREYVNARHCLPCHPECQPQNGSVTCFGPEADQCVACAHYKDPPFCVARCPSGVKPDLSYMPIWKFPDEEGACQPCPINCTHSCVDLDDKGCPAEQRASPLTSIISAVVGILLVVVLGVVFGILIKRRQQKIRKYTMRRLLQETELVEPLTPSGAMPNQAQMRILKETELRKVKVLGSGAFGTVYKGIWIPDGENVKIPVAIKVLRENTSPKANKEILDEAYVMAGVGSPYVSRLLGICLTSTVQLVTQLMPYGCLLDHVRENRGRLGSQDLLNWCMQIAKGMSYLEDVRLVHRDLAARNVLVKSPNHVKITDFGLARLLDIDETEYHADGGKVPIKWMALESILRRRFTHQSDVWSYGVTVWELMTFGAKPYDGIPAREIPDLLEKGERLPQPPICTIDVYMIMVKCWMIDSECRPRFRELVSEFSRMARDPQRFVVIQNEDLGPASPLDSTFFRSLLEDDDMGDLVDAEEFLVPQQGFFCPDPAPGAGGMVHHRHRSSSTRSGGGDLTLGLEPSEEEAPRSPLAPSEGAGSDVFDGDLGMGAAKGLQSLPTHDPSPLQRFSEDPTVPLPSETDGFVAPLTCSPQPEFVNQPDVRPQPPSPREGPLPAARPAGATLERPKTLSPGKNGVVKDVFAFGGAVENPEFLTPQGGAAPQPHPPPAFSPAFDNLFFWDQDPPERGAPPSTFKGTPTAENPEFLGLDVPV

With `COc1ccc(N2CCOCC2)cc1Nc1ncnc2[nH]nc(-c3ccsc3)c12` [Cmpd 41A], the GI50 in assay [1] is over 3330 nM; in assay [2], over 10000 nM. Further, the IC50 in assay [3] and in assay [4] was over 10000 nM in each case.

Take `COc1ccc(N2CCN(C)CC2)cc1Nc1ncnc2[nH]nc(-c3ccsc3)c12` [Cmpd 41B]: the values for the GI50 in assay [1] and in assay [2] were over 3330 nM and over 1000 nM, respectively. The IC50 in assay [3] is over 3330 nM; in assay [4], over 1000 nM.

As for `COc1ccc(C(=O)N(C)C)cc1Nc1ncnc2[nH]nc(-c3ccsc3)c12` [Cmpd 42], the GI50 in assay [1] and in assay [2] was over 10000 nM each time. Also, the IC50 in assay [3] and in assay [4] was over 10000 nM in each case.

With `COc1ccc(-c2ccccc2)cc1N(C)c1ncnc2[nH]nc(-c3ccsc3)c12` [Cmpd 43], the GI50 in assay [1] and in assay [2] was over 3330 nM throughout. The IC50 in assay [3] and in assay [4] was over 3330 nM throughout.

Consider `COc1ccc(-c2ccccc2)cc1Nc1ncnc2[nH]nc(-c3ccco3)c12` [Cmpd 45A], for which the results for the GI50 in assay [1] and in assay [2] were 43 nM and 1210 nM, respectively. Further, the IC50 in assay [3] was over 10000 nM; in assay [4] it was 978 nM.

For `COc1ccc(-c2ccccc2)cc1Nc1ncnc2[nH]nc(-c3cccs3)c12` [Cmpd 45B], the GI50 in assay [1] came out at 745 nM; in assay [2] it was 4030 nM. The IC50 in assay [3] was over 10000 nM; in assay [4] it was 3610 nM.

For `COc1ccc(-c2ccccc2)cc1Nc1ncnc2[nH]nc(-c3ccc[nH]3)c12` [Cmpd 45C], the values for the GI50 in assay [1] and in assay [2] were 952 nM and over 3330 nM, respectively. Moreover, the IC50 is over 10000 nM in assay [3] and over 3330 nM in assay [4].

`COc1ccc(-c2ccccc2)cc1Nc1ncnc2[nH]nc(-c3cccc(C(N)=O)c3)c12` [Cmpd 45D]: the GI50 in assay [1] is 270 nM; in assay [2], 880 nM. The IC50 in assay [3] came to 3010 nM; in assay [4], 869 nM.

In the case of `COc1ccc(-c2ccccc2)cc1Nc1ncnc2[nH]nc(-c3cn[nH]c3)c12` [Cmpd 45E], the GI50 was 53 nM in assay [1] and over 10000 nM in assay [2]. Also, the IC50 is over 10000 nM in assay [3] and 1350 nM in assay [4].

With `CNC(=O)c1cc(-c2n[nH]c3ncnc(Nc4cc(-c5ccccc5)ccc4OC)c23)cs1` [Cmpd 45F], the GI50 in assay [1] turned out to be 739 nM; in assay [2], 535 nM. Moreover, the IC50 in assay [3] was over 10000 nM; in assay [4], 1020 nM.

With `COc1ccc(-c2ccco2)cc1Nc1ncnc2[nH]nc(-c3cn[nH]c3)c12` [Cmpd 53B], the GI50 is 13.9 nM in assay [1] and over 10000 nM in assay [2]. Besides, the values for the IC50 in assay [3] and in assay [4] were over 10000 nM and 83.5 nM, respectively.

For `COc1ccc(-c2ccoc2)cc1Nc1ncnc2[nH]nc(-c3ccco3)c12` [Cmpd 57A], the results for the GI50 in assay [1] and in assay [2] were 21 nM and over 10000 nM, respectively. Also, the IC50 in assay [3] was over 10000 nM; in assay [4] it was 460 nM.

For `COc1ccc(-c2ccoc2)cc1Nc1ncnc2[nH]nc(-c3cn[nH]c3)c12` [Cmpd 57B], the GI50 in assay [1] was 12.6 nM; in assay [2] it was over 10000 nM. In addition, the IC50 in assay [3] was over 10000 nM; in assay [4], 82.9 nM.

Take `COc1ccc(-c2ccccc2)cc1Nc1ncnc2[nH]nc(-c3ccccc3)c12` [Cmpd 184]: the GI50 in assay [1] came to 386 nM; in assay [2], 527 nM. For the same compound, the IC50 was found to be 9950 nM in assay [3] and 1290 nM in assay [4].

As to `c1ccc(-c2cccc(Nc3ncnc4[nH]nc(-c5ccccc5)c34)c2)cc1` [Cmpd 186A], the GI50 in assay [1] and in assay [2] was over 10000 nM each time. The IC50 in assay [3] and in assay [4] was over 10000 nM throughout.

For `CC(=O)c1cccc(-c2n[nH]c3ncnc(Nc4cccc(-c5ccccc5)c4)c23)c1` [Cmpd 186B], the GI50 in assay [1] and in assay [2] was over 10000 nM each time. Moreover, the IC50 in assay [3] and in assay [4] was over 10000 nM throughout.

(Values after US20190119284A1, “ErbB Inhibitors and Uses Thereof” (The Regents of the University of California, priority 2016, published 2019).)
